Target: T1, full-length recombinant human Nek7 (Homo sapiens, UniProt Q8TDX7)
T1 construct: full-length recombinant human Nek7; GST (N); purchased SignalChem N09-10G; host or cells: Sf9 insect cells (baculovirus)
Test: NEK7 Enzymatic Assay
Format: biochemical
Details: radiometric [32P]-ATP kinase assay, casein substrate 20 μM, Nek7 70 nM, 2 hours room temperature
Procedure: Casein substrate (from bovine milk, hydrolyzed and partially dephosphorylated mixture of α, β and κ caseins, obtained from Sigma Aldrich, catalogue #C4765, diluted in distilled water to a final concentration of 1 mg/mL, assay concentration 20 μM) and full-length recombinant human Nek7 (expressed by baculovirus in Sf9 insect cells using a N-terminal GST tag, obtained from SignalChem, catalogue #N09-10G, 0.1 μg/μL, assay concentration 70 nM) were mixed in assay buffer (20 mM Hepes pH 7.5, 10 mM MgCl2, 1 mM EGTA, 0.02% Brij35, 0.02 mg/ml BSA, 0.1 mM […], 2 mM DTT, 1% DMSO). Compounds of interest (in DMSO, serial 3-fold dilution from 10 μM to 0.5 nM) or control (1% DMSO) were dispensed into the kinase reaction mixture by Acoustic technology (Echo550; nanoliter range). After incubation at room temperature for 20 minutes, the kinase reaction was initiated by addition of [^32P]-ATP (Specific activity 10 μCi/μl) and the mixture was incubated at room temperature for 2 hours. The reaction was then stopped by spotting the reaction mixture on strips of phosphocellulose P81 paper. Following washing, the radioactivity of the P81 paper was measured and kinase activity data were expressed as the percent remaining kinase activity in test samples compared to vehicle (dimethyl sulfoxide) reactions. IC50 values and curve fits were obtained using Prism (GraphPad Software).
Representative compounds were tested for inhibitory activity against NEK7 according to the procedure described above.

T1 sequence (Q8TDX7 whole entry): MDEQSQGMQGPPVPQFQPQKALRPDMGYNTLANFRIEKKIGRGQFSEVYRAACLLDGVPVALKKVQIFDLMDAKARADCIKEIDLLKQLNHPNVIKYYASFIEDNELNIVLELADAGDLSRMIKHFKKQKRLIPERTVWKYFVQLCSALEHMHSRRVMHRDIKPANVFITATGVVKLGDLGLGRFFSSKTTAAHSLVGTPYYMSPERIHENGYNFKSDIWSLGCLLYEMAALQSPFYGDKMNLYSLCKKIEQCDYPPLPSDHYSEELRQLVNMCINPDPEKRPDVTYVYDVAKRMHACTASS

| IC50 | SMILES |
| --- | --- |
| > 1500 nM | CC(C)n1nc(-c2ccc3c(c2F)CCN3C(=O)Cc2ccc(F)cc2)c2c(N)ncnc21 [Compound I-3, 1-(5-(4-amino-1-iso-propyl-1H-pyrazolo[3,4-d]pyrimidin-3-yl)-4-fluoroindolin-1-yl)-2-(4-fluorophenyl)ethan-1-one] |
| 151 to 300 nM | CC(C)n1cc(-c2ccc3c(c2F)CCN3C(=O)Cc2ccc(F)c(C(F)(F)F)c2)c2c(N)ncnc21 [Compound I-13, 1-(5-(4-amino-7-isoprop-yl-7H-pyrrolo[2,3-d]pyr-imidin-5-yl)-4-fluoroind-olin-1-yl)-2-(4-fluoro-3-(trifluoromethyl)phenyl)-ethan-1-one] |
| < 150 nM | Nc1ncnc2c1c(-c1ccc3c(c1Cl)CCN3C(=O)Cc1cc(C(F)(F)F)ccc1F)nn2C1CC1 [Compound I-15, 1-(5-(4-amino-1-cyclo-propyl-1H-pyrazolo[3,4-d]pyrimidin-3-yl)-4-chloroindolin-1-yl)-2-(2-fluoro-5-(trifluoro-methyl)phenyl)ethan-1-one] |
| < 150 nM | Nc1ncnc2c1c(-c1ccc3c(c1F)CCN3C(=O)Cc1cc(C(F)(F)F)ccc1F)cn2CCO [Compound I-18, 1-(5-(4-amino-7-(2-hydroxyethyl)-7H-pyr-rolo[2,3-d]pyrimidin-5-yl)-4-fluoroindolin-1-yl)-2-(2-fluoro-5-(tri-fluoromethyl)phenyl)-ethan-1-one] |
| < 150 nM | Nc1ncnc2c1c(-c1ccc3c(c1F)CCN3C(=O)Cc1cc(C(F)(F)F)ccc1F)nn2CCO [Compound I-19, 1-(5-(4-amino-1-(2-hydroxyethyl)-1H-pyr-azolo[3,4-d]pyrimidin-3-yl)-4-fluoroindolin-1-yl)-2-(2-fluoro-5-(tri-fluoromethyl)phenyl)-ethan-1-one] |
| < 150 nM | Nc1ncnc2c1c(-c1ccc3c(c1F)CCN3C(=O)Cc1cccc(C(F)(F)F)n1)cn2C1CC1 [Compound I-20, 1-(5-(4-amino-7-cyclo-propyl-7H-pyrrolo[2,3-d]pyrimidin-5-yl)-4-fluoroindolin-1-yl)-2-(6-(trifluoromethyl)pyr-idin-2-yl)ethan-1-one] |
| < 150 nM | Cc1cccc(CC(=O)N2CCc3c2ccc(-c2cn(C4CC4)c4ncnc(N)c24)c3F)n1 [Compound I-21, 1-(5-(4-amino-7-cyclo-propyl-7H-pyrrolo[2,3-d]pyrimidin-5-yl)-4-fluoroindolin-1-yl)-2-(6-methylpyridin-2-yl)-ethan-1-one] |
| < 150 nM | Nc1ncnc2[nH]cc(-c3ccc4c(c3F)CCN4C(=O)Cc3cc(C(F)(F)F)ccc3F)c12 [Compound I-22, 1-(5-(4-amino-7H-pyr-rolo[2,3-d]pyrimidin-5-yl)-4-fluoroindolin-1-yl)-2-(2-fluoro-5-(tri-fluoromethyl)phenyl)-ethan-1-one] |
| < 150 nM | CC(C)(O)Cn1cc(-c2ccc3c(c2F)CCN3C(=O)Cc2cc(C(F)(F)F)ccc2F)c2c(N)ncnc21 [Compound I-23, 1-(5-(4-amino-7-(2-hydroxy-2-methylprop-yl)-7H-pyrrolo[2,3-d]-pyrimidin-5-yl)-4-fluoroindolin-1-yl)-2-(2-fluoro-5-(trifluoro-methyl)phenyl)ethan-1-one] |
| < 150 nM | COCCn1nc(-c2ccc3c(c2F)CCN3C(=O)Cc2cc(C(F)(F)F)ccc2F)c2c(N)ncnc21 [Compound I-24, 1-(5-(4-amino-1-(2-methoxyethyl)-1H-pyrazolo[3,4-d]pyrim-idin-3-yl)-4-fluoroindo-lin-1-yl)-2-(2-fluoro-5-(trifluoromethyl)phen-yl)ethan-1-one] |
| 301 to 500 nM | CN1CCN(Cc2ccc(CC(=O)N3CCc4c3ccc(-c3cn(C5CC5)c5ncnc(N)c35)c4F)cc2C(F)(F)F)CC1 [Compound I-25, 1-(5-(4-amino-7-cyclo-propyl-7H-pyrrolo[2,3-d]pyrimidin-5-yl)-4-fluoroindolin-1-yl)-2-(4-((4-methylpiperazin-1-yl)methyl)-3-(tri-fluoromethyl)phenyl)-ethan-1-one] |
| < 150 nM | COCCn1cc(-c2ccc3c(c2F)CCN3C(=O)Cc2cc(C(F)(F)F)ccc2F)c2c(N)ncnc21 [Compound I-26, 1-(5-(4-amino-7-(2-methoxyethyl)-7H-pyr-rolo[2,3-d]pyrimidin-5-yl)-4-fluoroindolin-1-yl)-2-(2-fluoro-5-(tri-fluoromethyl)phenyl)-ethan-1-one] |
| < 150 nM | Nc1ncnc2c1c(-c1ccc3c(c1F)CCN3C(=O)Cc1cc(C(F)(F)F)ccc1F)cn2C1CC(O)C1 (centres unmarked) [Compound I-27, 1-(5-(4-amino-7-(3-hydroxycyclobutyl)-7H-pyrrolo[2,3-d]pyrimidin-5-yl)-4-fluoroindolin-1-yl)-2-(2-fluoro-5-(tri-fluoromethyl)phenyl)-ethan-1-one] |
| < 150 nM | CN1CCC(n2cc(-c3ccc4c(c3F)CCN4C(=O)Cc3cc(C(F)(F)F)ccc3F)c3c(N)ncnc32)CC1 [Compound I-28, 1-(5-(4-amino-7-(1-methylpiperidin-4-yl)-7H-pyrrolo[2,3-d]pyr-imidin-5-yl)-4-fluoro-indolin-1-yl)-2-(2-fluoro-5-(trifluorometh-yl)phenyl)ethan-1-one] |
| < 150 nM | Nc1nccc2c1c(-c1ccc3c(c1F)CCN3C(=O)Cc1cc(C(F)(F)F)ccc1F)nn2C1CC1 [Compound I-29, 1-(5-(4-amino-1-cyclo-propyl-1H-pyrazolo[4,3-c]pyridin-3-yl)-4-fluoro-indolin-1-yl)-2-(2-fluoro-5-(trifluoromethyl)phen-yl)ethan-1-one] |
| > 1500 nM | CN1CCN(Cc2ccc(C(F)(F)F)cc2CC(=O)N2CCc3c2ccc(-c2cn(C4CC4)c4ncnc(N)c24)c3F)CC1 [Compound I-30, 1-(5-(4-amino-7-cyclo-propyl-7H-pyrrolo[2,3-d]pyrimidin-5-yl)-4-fluoroindolin-1-yl)-2-(2-((4-methylpiperazin-1-yl)methyl)-5-(trifluoro-methyl)phenyl)ethan-1-one] |
| < 150 nM | CN1CCCC(n2cc(-c3ccc4c(c3F)CCN4C(=O)Cc3cc(C(F)(F)F)ccc3F)c3c(N)ncnc32)C1 (centres unmarked) [Compound I-31, 1-(5-(4-amino-7-(1-methylpiperidin-3-yl)-7H-pyrrolo[2,3-d]pyr-imidin-5-yl)-4-fluoroin-dolin-1-yl)-2-(2-fluoro-5-(trifluoromethyl)phen-yl)ethan-1-one] |
| > 1500 nM | CN1CCN(Cc2cc(CC(=O)N3CCc4c3ccc(-c3cn(C5CC5)c5ncnc(N)c35)c4F)cc(C(F)(F)F)c2)CC1 [Compound I-32, 1-(5-(4-amino-7-cyclo-propyl-7H-pyrrolo[2,3-d]pyrimidin-5-yl)-4-fluoroindolin-1-yl)-2-(3-((4-methylpiperazin-1-yl)methyl)-5-(tri-fluoromethyl)phenyl)-ethan-1-one] |
| < 150 nM | CN1CC(n2cc(-c3ccc4c(c3F)CCN4C(=O)Cc3cc(C(F)(F)F)ccc3F)c3c(N)ncnc32)C1 [Compound I-33, 1-(5-(4-amino-7-(1-methylazetidin-3-yl)-7H-pyrrolo[2,3-d]pyr-imidin-5-yl)-4-fluoroin-dolin-1-yl)-2-(2-fluoro-5-(trifluoromethyl)phen-yl)ethan-1-one] |
| < 150 nM | Nc1ncnc2c1c(-c1ccc3c(c1F)CCN3C(=O)Cc1cc(C(F)(F)F)ccc1F)cn2CCC(=O)O [Compound I-34, 3-(4-amino-5-(4-fluoro-1-(2-(2-fluoro-5-(tri-fluoromethyl)phenyl)-acetyl)indolin-5-yl)-7H-pyrrolo[2,3-d]pyrimidin-7-yl)propanoic acid] |

Source: patent publication US20240382488A1, “NEK7 INHIBITORS” (Halia Therapeutics, Inc., priority 2021, published 2024)
